From patent publication US20180243325A1, “METHOD FOR INHIBITING ABSORPTION OF AND/OR PROMOTING EXCRETION OF LIPIDS USING D-PSICOSE” (CJ CHEILJEDANG CORPORATION, priority 2015, published 2018)

What was measured:
Type in all cases: in vivo, C57BL/6J mice
[1] = test system: high-fat diet-induced obese mice; assay: Plasma leptin, resistin, adiponectin levels and L:A ratio; conditions: FIG. 3, HFD+5% w/w in diet, 16 weeks
Procedure: (§1) First, 4-week-old male C57BL/6J mice (60 total) were purchased from Jackson Laboratory. The animals were acclimated to the vivarium in a thermo-hygrostat (20-23° C., 45-65%) under a 12 h light/dark cycle and fed a pelletized commercial non-purified diet for 1 week after arrival. The mice were then randomly divided into 6 groups (n=10) and fed the respective experimental diets for 16 weeks: normal diet group (ND, American Institute of Nutrition (AIN)-76 semi-synthetic diet), high-fat diet group (HFD, 20% fat+1% cholesterol based on AIN-76 diet), PSI group (HFD+5% D-psicose, w/w, Sigma Chemical Company), ERY group (HFD+5% erythritol, w/w, Sigma Chemical Company), GLU group (HFD+5% D-glucose, w/w, Sigma Chemical Company), and FRU group (HFD+5% D-fructose, w/w, Sigma Chemical Company). All high-fat diet-fed groups were allowed to ingest the same calories by pair feeding based on the PSI group. The mice had ad libitum access to distilled water during the experimental period. Their feed intakes and body weights were measured daily and biweekly, respectively. The organ weights and the adipose tissue weights of the mice were measured after sacrificing the animals. Plasma leptin, resistin, and adiponectin levels were measured using Bio-Rad multiplex kits (Hercules, Calif., USA). All samples were assayed in duplicate and analyzed using a Luminex 200 labmap system (Luminex, Austin, Tex., USA). Data analysis was performed using Bio-Plex Manager software version 4.1.1 (Bio-Rad, Hercules, Calif., USA).

[2] = test system: CD36 (cluster of differentiation 36, 12491); assay: Small intestine mRNA expression, real-time quantitative PCR: CD36; conditions: FIG. 8, HFD+5% w/w in diet, 16 weeks
Procedure: as §1, with “animals.” for “animals. Plasma leptin, resistin, and adiponectin levels were measured using Bio-Rad multiplex kits (Hercules, Calif., USA). All samples were assayed in duplicate and analyzed using a Luminex 200 labmap system (Luminex, Austin, Tex., USA). Data analysis was performed using Bio-Plex Manager software version 4.1.1 (Bio-Rad, Hercules, Calif., USA).”
Samples were prepared and analyzed as previously described. Specifically, total RNA was synthesized into cDNA using a QuantiTect Reverse Transcription kit (QIAGEN Gmb1h, Hilden, Germany). RNA expression was quantified with real-time quantitative PCR using a QuantiTect SYBR Green PCR kit (QIAGEN Gmb1h, Hilden, Germany). Primers were designed to detect CD36 (cluster of differentiation 36, 12491), ApoB48 (apolipoprotein B 48, 238055), FATP4 (fatty acid transporter 4, 26569), ABCG5 (ATP-binding cassette sub-family G member5, 27409), and ABCG8 (ATP-binding cassette sub-family G member8, 67470). GAPDH was used as an internal transcription marker. The reaction was performed a total of 40 cycles (each consisting of 15 sec at 94° C., 30 sec at 58° C., 30 sec at 72° C., and 15 sec at 65° C.). Fluorescence signals were monitored every cycle and the resulting threshold cycles (Ct) were analyzed. mRNA expression in each experimental group was quantified using a CFX96 Real time system (Bio-rad, USA).

Fatty acid β-oxidation = assay: Hepatic fatty acid β-oxidation activity; conditions: FIG. 4B, liver, HFD+5% w/w in diet, 16 weeks
Procedure: as §1, with “Samples” for “Plasma leptin, resistin, and adiponectin levels”, “prepared” for “measured using Bio-Rad multiplex kits (Hercules, Calif., USA). All samples were assayed in duplicate”, “according to the method developed by Hulcher and Oleson. Specifically, the activity of fatty acid synthase (FAS) as” for “using”, “hepatic lipid regulating enzyme” for “Luminex 200 labmap system (Luminex, Austin, Tex., USA). Data analysis”, “measured by spectrophotometric assay according to the method described by Nepokroeff et al. Each sample was mixed with 100 μl of cytoplasmic fraction and the mixture was allowed to react at 30° C. for 2 min. A reduction in absorbance at 340 nm was measured. Fatty acid synthase (FAS) activity units were expressed as nanomoles (nmol) of NADPH oxidized for 1 min per mg of cytoplasmic fraction. Fatty acid β-oxidation activity was measured by monitoring the reduction of NAD^+ to NADH in the presence of palmitoyl-CoA, as described by Lazarow. β-oxidation activity units were expressed as nanomoles (nmol) of NADH produced for 1 min per mg of mitochondrial protein.” for “performed using Bio-Plex Manager software version 4.1.1 (Bio-Rad, Hercules, Calif., USA).”

SMILES | leptin:adiponectin ratio (L:A ratio) [1] | plasma leptin level [1] | plasma resistin level [1] | mRNA expression level of CD36 in the small intestine [2] | hepatic fatty acid β-oxidation activity (Fatty acid β-oxidation) | mRNA expression level of CD36 in the small intestine ([2]; listed as D-psicose)
O=C(CO)[C@@H](O)[C@H](O)[C@H](O)CO [FRU, D-fructose] | increased significantly compared to those in the ND group | increased significantly compared to those in the ND group | increased significantly compared to those in the ND group | significantly higher | increased significantly compared to those in the ND group | –
O=C(CO)[C@H](O)[C@H](O)[C@H](O)CO [PSI, D-psicose] | reduced considerably to levels similar to those in the ND group | reduced considerably to levels similar to those in the ND group | reduced considerably to levels similar to those in the ND group | significantly lower in the PSI group than those in other high-fat diet groups | decreased significantly compared to those in other high-fat diet groups | reduces mRNA expression
O=C[C@H](O)[C@@H](O)[C@H](O)[C@H](O)CO [GLU, D-glucose] | increased significantly compared to those in the ND group | increased significantly compared to those in the ND group | increased significantly compared to those in the ND group | significantly higher | increased significantly compared to those in the ND group | –
OC[C@@H](O)[C@@H](O)CO [ERY, erythritol] | increased significantly compared to those in the ND group | increased significantly compared to those in the ND group | increased significantly compared to those in the ND group | significantly higher | increased significantly compared to those in the ND group | –
